# Assay results: US20210214560A1, “COMPOUND, COLORING COMPOSITION, INK, TONER, COLORING RESIN COMPOSITION, AND COMPOSITION FOR DYEING FIBER” (FUJIFILM Corporation, priority 2018, published 2021)
# Legend:
# Type in all cases: physicochemical
# [1] = Evaluation of maximum absorption wavelength (absorption spectrum in tetrahydrofuran solution); conditions: 1×10^−6 mol/L
# [2] = Production of toner (melting and mixing with resin at 150° C.); conditions: 3 g compound with 100 g styrene-acrylic acid ester copolymer, melted and mixed at 150° C.
# Experimental: After mixing and pulverizing 3 g of the compound according to the embodiment of the present invention (compound (1-36)) and 100 g of a resin for toner [styrene-acrylic acid ester copolymer; HIMER TB-1000F (trade name, manufactured by Sanyo Chemical Industries, Ltd.)] with a ball mill, the resultant was heated at 150° C. to be melted and mixed, and the results were cooled, roughly pulverized using a hammer mill, and then finely pulverized using a fine pulverizer with an air-jet system. Furthermore, particles which have a particle diameter of 1 to 20 μm were classified and selected to produce a toner.
# 900 g of carrier iron powder (EFV250/400, trade name, manufactured by Powdertech Co., Ltd.) were uniformly mixed with 10 g of the toner to prepare a developer. Using this developer, copying was performed with a dry type plain paper electrophotographic copier [NP-5000, trade name, manufactured by Canon Inc.].
# [3] = Evaluation of heat stability (heat resistance), powder heated at 180° C. for 5 minutes; conditions: oven 180° C. for 5 minutes, A/A0×100, absorbance in tetrahydrofuran
# Experimental: (§1) Heat stability of each compound was evaluated by the following procedure. 10 mg of the powder of each compound was dissolved in 500 mL of tetrahydrofuran, and the absorption spectrum was measured to obtain a reference absorbance (A0). On the other hand, 10 mg of the powder of each compound was weighed in a 4 cm square aluminum cup, placed in an oven, and heated at 180° C. for 5 minutes. The entire amount of the powder after heating was dissolved in 500 mL of tetrahydrofuran, and the absorption spectrum was measured to obtain an absorbance (A) after the heating test. The residual rate of each compound was calculated by the following expression to evaluate heat stability.
# Residual rate of compound (%)=A/A0×100
# [4] = Production of coloring resin composition (kneading with polybutylene terephthalate at 190° C.); conditions: 1 g colorant with 100 g polybutylene terephthalate, biaxial extruder, cylinder temperature 190° C.
# Experimental: Using a henschel mixer, a blend of 100 g of polybutylene terephthalate (manufactured by Wintech Polymer Ltd., trade name, DURANEX 2002, melting point: 225° C.) and 1 g of the compound according to the embodiment of the present invention (compound (1-48)) was supplied to a biaxial extruder (equipment: TEX28V manufactured by Japan Steel Works, Ltd., screw speed: 200 rotations per minute (rpm)), and kneading was performed at a cylinder temperature of 190° C. to obtain a coloring resin pellet (coloring resin composition). The torque of the extruder was stable and extrusion could be continued, and the discharged strands could be stably conveyed to the pelletizer.
# A coloring resin pellet was obtained in the same manner as in Example 25, except that the compound (1-48) of Example 25 was changed to OIL BLACK HBB (manufactured by Orient Chemical Industries Co., Ltd., trade name).
# [5] = Evaluation 2 of heat stability, powder heated at 200° C. for 5 minutes; conditions: oven 200° C. for 5 minutes, A2/A0×100, absorbance in tetrahydrofuran
# Experimental: as §1, with “200°” for “180°”, “(A2)” for “(A)”
# Residual rate of compound (%)=A2/A0×100
# [6] = optical path length 10 mm (Table 7)
# [7] = optical path length 10 mm (Table 9)
Structure (SMILES),"Absorption maximum wavelength [1, 6] [nm]","Molar light absorption coefficient [1, 6]",Pyrolysis in melting and mixing in the toner production [2],Residual rate of compound [3] [%],Contamination due to pyrolysis in kneading of coloring resin pellet [4],"Absorption maximum wavelength [1, 7] [nm]","Molar light absorption coefficient [1, 7] [L/mol/cm]",Residual rate of compound [5] [%]
CC1(C)Nc2cccc3c(N=Nc4ccc(N=Nc5ccccc5[N+](=O)[O-])c5ccccc45)ccc(c23)N1 [(1-36)],638,"30,100 L · mol^−1 · cm^−1",Pyrolysis in melting and mixing in the toner production was reduced,98,–,–,–,–
CC(=O)c1ccccc1N=Nc1ccc(N=Nc2ccc3c4c(cccc24)NC(C)(C)N3)c2ccccc12 [(1-48)],624,"34,100 L · mol^−1 · cm^−1",–,99,No contamination due to pyrolysis was observed,–,–,–
CC(C)C1(C)Nc2cccc3ccc(N=Nc4ccc(N=Nc5ccccc5Cl)c5ccccc45)c(c23)N1 (centres unmarked) [(3-9)],–,–,–,–,–,614,35500,85
"CC1(C)Nc2cccc3ccc(N=Nc4ccc(N=Nc5ccccc5)c5ccccc45)c(c23)N1 [Comparative compound D, reference compound]",–,–,–,–,–,599,34200,65
